Measurements: US20120178786A9, “Use of tetramic acid derivatives for controlling pests by drenching, drip application, or dip application” (priority 2006, published 2012)

What was measured:
Format in all cases: in vivo
Coccus viridis = assay: Example 11: drench of gardenia plants, Henderson-Tilton efficacy against nymphs; conditions: 12 mg active substance/1 potting compost, 240 SC
Experimental: Gardenia plants cv. […] The greenhouse temperature is 27° C. The test is evaluated 7, 15, 21 and 35 days after the treatment by determining the activity against nymphs on the leaves with the aid of the Henderson-Tilton method.

Bemisia sp. = assay: Example 15: drench of bell pepper plots, kill rate of larvae on the leaves; conditions: 10.5 mg/plant
Experimental: Plots approximately 2×5 m in size which contain bell pepper plants are treated, in three replications, against Bemisia sp. The active substance example (I-4) cis isomer (240 SC) is drenched in an active substance solution at the application rate stated. The water application rate is 700 l/ha. Three treatments are carried out at intervals of 7 and 14 days. The test is evaluated in each case 7, 14, 21 and 28 days after the 3rd treatment by scoring the kill rate of the larvae on the leaves.

[1] = system: Trialeurodes vaporarium (TRIAVA); assay: Example 10: drip application to tomato plants on rock wool, Abbott efficacy; conditions: 9.8 mg active substance/plant, 70 WG, three treatments
Experimental: In each case 12 tomato plants cv. “Briljant” on rock wool are treated, in four replications, with a drip application against Trialeurodes vaporarium (TRIAVA) with an active substance solution containing the active substance I-4 (cis isomer, formulation: 100 OD) in comparison with the commercial standard imidacloprid (70 WG) at the application rate stated. The greenhouse temperature is 20° C. Three treatments are carried out at intervals of seven and fourteen days. The test is evaluated 14, 21, 28, 36 and 43 days after the 1st treatment by determining the efficacy with the aid of Abbott's formula.

[2] = system: Madeira mealybug (Phenacoccus madeirensis); assay: Example 13: drench of Coleus plants, Abbott efficacy; conditions: 12 mg active substance/1 potting compost, 240 SC
Experimental: Coleus plants (approximate height 29 cm) in 6-inch pots which have been infected approximately 4 weeks before the beginning of the experiment with Madeira mealybug (Phenacoccus madeirensis) are drenched, in three replications, with an active substance solution containing the active substance I-4 (cis isomer, formulation: 240 SC) and, by way of comparison, with the commercial standard imidacloprid (240 SC) at the application rate stated. The greenhouse temperature is 29° C. The test is evaluated 7, 14, 21 and 28 days after the treatment by determining the efficacy with the aid of Abbott's formula.

[3] = system: Frankliniella occidentalis (FRANOC); assay: Example 6: drench of verbena plants, Henderson-Tilton efficacy against nymphs; conditions: 12 mg active substance/1 potting compost, 240 SC
Experimental: Verbena plants (approximate height 13 cm) in 6-inch-pots which are infected with Frankliniella occidentalis (FRANOC) are drenched, in four replications, with an active substance solution containing the active substance I-4 (cis isomer, formulation: 240 SC) and, by way of comparison, with the commercial standard imidacloprid (240 SC) at the application rate stated. The greenhouse temperature is 27-33° C. The test is evaluated 7, 14, 21 and 28 days after the treatment by determining the activity against nymphs on the leaves with the aid of the Henderson-Tilton method.

[4] = system: Bemisia argentifolii (BEMIAR); assay: Example 8: drench of tropical sage plants, Henderson-Tilton efficacy against nymphs; conditions: 12 mg active substance/1 potting compost, 240 SC
Experimental: Tropical sage plants cv. “scarlet sage” (approximate height 29 cm) in 6-inch pots and infested with Bemisia argentifolii (BEMIAR) are drenched, in three replications, with an active substance solution containing the active substance I-4 (cis isomer, formulation: 240 SC) and, by way of comparison, with the commercial standard imidacloprid (240 SC) at the application rate stated. The greenhouse temperature is 27-33° C. The test is evaluated 9, 13, 20, 34 and 41 days after the treatment by determining the activity against nymphs on the leaves with the aid of the Henderson-Tilton method.

Thrips palmi = assay: Example 7: drench of cucumber plots, Abbott efficacy; conditions: 20 mg active substance/plant, two applications at 10-day interval, I-4 240 SC, imidacloprid 100 SL
Experimental: Plots approximately 5 m^2 in size and containing cucumber plants are drenched, in three replications, against Thrips palmi with an active substance solution containing the active substance I-4 (cis isomer, formulation: 240 SC) and, by way of comparison, with the standard imidacloprid (100 SL) at the application rate stated, corresponding to an approximate water application rate of 300 l/ha. Two applications are effected at a 10-day interval. The test is evaluated in each case 9 days after the first treatment and 7 and 13 days after the second treatment by determining the efficacy with the aid of Abbott's formula.

[5] = system: citrus mealybug Pseudococcus citri (PSECCI); assay: Example 12: drench of Coleus plants, Abbott efficacy; conditions: 12 mg active substance/1 potting compost, 240 SC
Experimental: Coleus plants (approximate height 29 cm) in 6-inch pots which have been infected approximately 4 weeks before the treatment with citrus mealybug Pseudococcus citri (PSECCI) are drenched, in three replications, with an active substance solution containing the active substance I-4 (cis isomer, formulation: 240 SC) and, by way of comparison, with the commercial standard imidacloprid (240 SC) at the application rate stated. The greenhouse temperature is 29° C. The test is evaluated 7, 14, 21 and 28 days after the treatment by determining the efficacy with the aid of Abbott's formula.

Aphis craccivora = assay: Example 3: drench of violet plants, Henderson-Tilton efficacy against nymphs; conditions: 12 mg active substance/1 potting compost, 240 SC
Experimental: Violet plants cv. “Ladies delight” (approximate height 15 cm) in 4-inch pots which had been infected with Aphis craccivora two weeks before the treatment are drenched, in four replications, with an active substance solution containing the active substance I-4 (cis isomer, formulation: 240 SC) and, by way of comparison, with the commercial standard imidacloprid (240 SC) at the application rate stated. The greenhouse temperature is 27-33° C. The test is evaluated 7, 14, 22 and 35 days after the treatment by determining the activity against nymphs on the leaves with the aid of the Henderson-Tilton method.

O=[N+]([O-])NC1=NCCN1Cc1ccc(Cl)nc1 [Imidacloprid, imidacloprid, reference compound]
Henderson-Tilton efficacy (%) against Coccus viridis (Coccus viridis; 7 d after treatment): 45% | Henderson-Tilton efficacy (%) against Coccus viridis (Coccus viridis; 15 d after treatment): 55% | Henderson-Tilton efficacy (%) against Coccus viridis (Coccus viridis; 21 d after treatment): 66% | Henderson-Tilton efficacy (%) against Coccus viridis (Coccus viridis; 35 d after treatment): 100% | Efficacy (% Abbott) against Bemisia sp. (Bemisia sp.; 7 d after 3rd treatm.): 96.6 % Abbott | Efficacy (% Abbott) against Bemisia sp. (Bemisia sp.; 14 d after 3rd treatm.): 80.6 % Abbott | Efficacy (% Abbott) against Bemisia sp. (Bemisia sp.; 21 d after 3rd treatm.): 84.6 % Abbott | Efficacy (% Abbott) against Bemisia sp. (Bemisia sp.; 28 d after 3rd treatm.): 85.7 % Abbott | Abbott efficacy (%) against TRIAVA ([1]; 14 d after 1st treatment): 28.4% | Abbott efficacy (%) against TRIAVA ([1]; 21 d after 1st treatment): 55.3% | Abbott efficacy (%) against TRIAVA ([1]; 28 d after 1st treatment): 89.1% | Abbott efficacy (%) against TRIAVA ([1]; 36 d after 1st treatment): 92.0% | Abbott efficacy (%) against TRIAVA ([1]; 43 d after 1st treatment): 89.8% | Abbott efficacy (%) against Phenacoccus madeirensis ([2]; 7 d after treatment): 92% | Abbott efficacy (%) against Phenacoccus madeirensis ([2]; 14 d after treatment): 83% | Abbott efficacy (%) against Phenacoccus madeirensis ([2]; 21 d after treatment): 30% | Abbott efficacy (%) against Phenacoccus madeirensis ([2]; 28 d after treatment): 44% | Henderson-Tilton efficacy (%) against FRANOC ([3]; 7 d after treatment): 100% | Henderson-Tilton efficacy (%) against FRANOC ([3]; 14 d after treatment): 100% | Henderson-Tilton efficacy (%) against FRANOC ([3]; 21 d after treatment): 49% | Henderson-Tilton efficacy (%) against FRANOC ([3]; 28 d after treatment): 100% | Henderson-Tilton efficacy (%) against Bemisia argentifolii ([4]; 9 d after treatment): 94% | Henderson-Tilton efficacy (%) against Bemisia argentifolii ([4]; 13 d after treatment): 100% | Henderson-Tilton efficacy (%) against Bemisia argentifolii ([4]; 20 d after treatment): 95% | Henderson-Tilton efficacy (%) against Bemisia argentifolii ([4]; 34 d after treatment): 94% | Henderson-Tilton efficacy (%) against Bemisia argentifolii ([4]; 41 d after treatment): 100% | Abbott efficacy (%) against THRIPL (Thrips palmi; 7 d after 2nd treatm.): 68.8% | Abbott efficacy (%) against THRIPL (Thrips palmi; 9 d after 1st treatm.): 73.7% | Abbott efficacy (%) against THRIPL (Thrips palmi; 13 d after 2nd treatm.): 44.0% | Abbott efficacy (%) against PSECCI ([5]; 7 d after treatment): 30% | Abbott efficacy (%) against PSECCI ([5]; 14 d after treatment): 35% | Abbott efficacy (%) against PSECCI ([5]; 21 d after treatment): 19% | Abbott efficacy (%) against PSECCI ([5]; 28 d after treatment): 16% | Henderson-Tilton efficacy (%) against Aphis craccivora (Aphis craccivora; 7 d after treatment): 100% | Henderson-Tilton efficacy (%) against Aphis craccivora (Aphis craccivora; 14 d after treatment): 94% | Henderson-Tilton efficacy (%) against Aphis craccivora (Aphis craccivora; 22 d after treatment): 100% | Henderson-Tilton efficacy (%) against Aphis craccivora (Aphis craccivora; 35 d after treatment): 100%
